pIC50: −log10 of the molar value. Read-outs that look alike come from different tables or passages of the source.
Biological target: T1, human poly-histidine tagged KSP motor domain (KSP(367H)) (Homo sapiens, UniProt P52732)
T1 construct: were used to amplify the motor domain and the neck linker region; made in house; host or cells: E. coli BL21 (DE3), vector pRSETa
T1 sequence (P52732 18-359 limits assumed): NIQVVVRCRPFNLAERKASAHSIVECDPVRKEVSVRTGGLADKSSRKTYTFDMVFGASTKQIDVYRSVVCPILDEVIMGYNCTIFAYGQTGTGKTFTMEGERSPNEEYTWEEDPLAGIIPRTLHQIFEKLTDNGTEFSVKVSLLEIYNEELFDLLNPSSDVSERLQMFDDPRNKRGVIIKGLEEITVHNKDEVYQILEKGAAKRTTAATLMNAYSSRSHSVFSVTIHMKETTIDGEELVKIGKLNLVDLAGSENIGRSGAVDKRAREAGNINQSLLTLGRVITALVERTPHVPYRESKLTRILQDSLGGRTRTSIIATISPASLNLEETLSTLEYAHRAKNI
Assay: Kinesin ATPase In Vitro Assay
Format: biochemical
Description: I. Kinesin ATPase In Vitro Assay
The N-terminal primer 5′-[…] (SEQ. ID. NO.: 1) and the C-terminal primer 5′-[…] […] (SEQ. ID. NO.: 2)
were used to amplify the motor domain and the neck linker region. The PCR products were digested with AseI and XhoI, ligated into the NdeI/XhoI digestion product of pRSETa (Invitrogen) and transformed into E. coli BL21 (DE3).
Cells were grown at 37° C. to an OD600 of 0.5. After cooling the culture to room temperature expression of KSP was induced with 100 μM IPTG and incubation was continued overnight. Cells were pelleted by centrifugation and washed once with ice-cold PBS. Pellets were flash-frozen and stored −80° C.
Protein Purification: Cell pellets were thawed on ice and resuspended in lysis buffer (50 mM K-HEPES, pH 8.0, 250 mM KCl, 0.1% Tween, 10 mM imidazole, 0.5 mM Mg-ATP, 1 mM PMSF, 2 mM benzimidine, 1× complete protease inhibitor cocktail (Roche)). Cell suspensions were incubated with 1 mg/ml lysozyme and 5 mM β-mercaptoethanol on ice for 10 minutes, followed by sonication (3×30 sec). All subsequent procedures were performed at 4° C. Lysates were centrifuged at 40,000×g for 40 minutes. Supernatants were diluted and loaded onto an SP Sepharose column (Pharmacia, 5 ml cartridge) in buffer A (50 mM K-HEPES, pH 6.8, 1 mM MgCl2, 1 mM EGTA, 10 μM Mg-ATP, 1 mM DTT) and eluted with a 0 to 750 mM KCl gradient in buffer A. Fractions containing KSP were pooled and incubated with Ni-NTA resin (Qiagen) for one hour. The resin was washed three times with buffer B (Lysis buffer minus PMSF and protease inhibitor cocktail), followed by three 15-minute incubations and washes with buffer B. Finally, the resin was incubated and washed for 15 minutes three times with buffer C (same as buffer B except for pH 6.0) and poured into a column. KSP was eluted with elution buffer (identical to buffer B except for 150 mM KCl and 250 mM imidazole). KSP-containing fractions were pooled, made 10% in sucrose, and stored at −80° C.
Microtubules are prepared from tubulin isolated from bovine brain. Purified tubulin (>97% MAP-free) at 1 mg/ml is polymerized at 37° C. in the presence of 10 μM paclitaxel, 1 mM DTT, 1 mM GTP in BRB80 buffer (80 mM K-PIPES, 1 mM EGTA, 1 mM MgCl2 at pH 6.8). The resulting microtubules are separated from non-polymerized tubulin by ultracentrifugation and removal of the supernatant. The pellet, containing the microtubules, is gently resuspended in 10 μM paclitaxel, 1 mM DTT, 50 μg/ml ampicillin, and 5 μg/ml chloramphenicol in BRB80.
The kinesin motor domain is incubated with microtubules, 1 mM ATP (1:1 MgCl2: Na-ATP), and compound at 23° C. in buffer containing 80 mM K-HEPES (pH 7.0), […], 1 mM DTT, 1 mM MgCl2, and 50 mM KCl. The reaction is terminated by a 2-10 fold dilution with a final buffer composition of 80 mM HEPES and 50 mM EDTA. […] The reaction is incubated for 10 minutes at 23° C., and the absorbance of the phospho-molybdate complex is measured at 540 nm.

[1] = (3R,4R) enantiomeric form tested, kinesin motor domain with microtubules, 1 mM ATP, 23° C., free phosphate by quinaldine red/ammonium molybdate, read-out: IC50

| pIC50 | pIC50 [1] | Structure (SMILES) |
| --- | --- | --- |
| ≥ 4.52 | – | CC(=O)C1=NN2c3cc(F)ccc3OC[C@H]2[C@@]1(CCCN1CCC(=O)N(C)CC1)c1ccccc1 [Compound 4-38, 1-{3-[(3R,4R)-2-acetyl-8-fluoro-3-phenyl-3a,4-dihydro-3H-pyrazolo[5,1-c][1,4]benzoxazin-3-yl]propyl}-4-methyl-1,4-diazepan-5-one] |
| – | ≥ 4.52 | CC(=O)C1=NN2c3cc(F)ccc3OCC2[C@@]1(CCCN1CC2C[C@@H]1CO2)c1ccccc1 (mixture of isomers) [Compound 4-15, (3R,4R) 1-{8-fluoro-3-[3-(2-oxa-5-azabicyclo[2.2.1]hept-5-yl)propyl]-3-phenyl-3a,4-dihydro-3H-pyrazolo[5,1-c][1,4]benzoxazin-2-yl}ethanone] |
| ≥ 4.52 | – | CC(=O)C1=NN2c3cc(F)ccc3OCC2C1(CCCN(C)C)c1ccccc1 [Compound 4-13, (3R,4R) 1-{3-[3-(dimethylamino)propyl]-8-fluoro-3-phenyl-3a,4-dihydro-3H-pyrazolo[5,1-c][1,4]benzoxazin-2-yl}ethanone] |
| – | ≥ 4.52 | COCC(=O)N1CCN(CCC[C@]2(c3ccccc3)C(C(C)=O)=NN3c4cc(F)ccc4OC[C@H]32)CC1 [Compound 4-26, 1-((3R,4R)-8-fluoro-3-{3-[4-(methoxyacetyl)piperazin-1-yl]propyl}-3-phenyl-3a,4-dihydro-3H-pyrazolo[5,1-c][1,4]benzoxazin-2-yl)ethanone] |
| – | ≥ 4.52 | CC(=O)C1=NN2c3cc(F)ccc3OC[C@H]2[C@@]1(CCCN1CCN(C(=O)C(C)(C)C)CC1)c1ccccc1 [Compound 4-30, 1-((3R,4R)-3-{3-[4-(2,2-dimethylpropanoyl)piperazin-1-yl]propyl}-8-fluoro-3-phenyl-3a,4-dihydro-3H-pyrazolo[5,1-c][1,4]benzoxazin-2-yl)ethanone] |
| – | ≥ 4.52 | CON(C)C(=O)C1=NN2c3cc(F)ccc3OC[C@H]2[C@H]1c1ccccc1 [Compound 1-7, (3R,4R)-8-Fluoro-N-methoxy-N-methyl-3-phenyl-3a,4-dihydro-3H-pyrazolo[5,1-c][1,4]benzoxazine-2-carboxamide] |
| ≥ 4.52 | – | CC(=O)C1=NN2c3cc(C)ccc3OCC2C1(CCCN1CCOCC1)c1ccccc1 [Compound 4-19, (3R,4R) 1-[8-methyl-3-(3-morpholin-4-ylpropyl)-3-phenyl-3a,4-dihydro-3H-pyrazolo[5,1-c][1,4]benzoxazin-2-yl]ethanone] |
| – | ≥ 4.52 | CC(=O)C1=NN2c3cc(F)ccc3OC[C@H]2[C@@]1(CCCN1CCN(C(=O)CO)CC1)c1ccccc1 [Compound 4-25, 1-{(3R,4R)-8-fluoro-3-[3-(4-glycoloylpiperazin-1-yl)propyl]-3-phenyl-3a,4-dihydro-3H-pyrazolo[5,1-c][1,4]benzoxazin-2-yl}ethanone] |
| ≥ 4.52 | – | CC(=O)C1=NN2c3cc(F)ccc3OCC2C1(CCCN1CCOCC1)c1ccccc1 [Compound 4-14, (3R,4R) 1-[8-fluoro-3-(3-morpholin-4-ylpropyl)-3-phenyl-3a,4-dihydro-3H-pyrazolo[5,1-c][1,4]benzoxazin-2-yl]ethanone] |
| – | ≥ 4.52 | CC(=O)C1=NN2c3cc(F)ccc3OC[C@H]2[C@@]1(CCCN1CCN(C(=O)N(C)C)CC1)c1ccccc1 [Compound 4-29, 4-{3-[(3R,4R)-2-acetyl-8-fluoro-3-phenyl-3a,4-dihydro-3H-pyrazolo[5,1-c][1,4]benzoxazin-3-yl]propyl}-N,N-dimethylpiperazine-1-carboxamide] |
| – | ≥ 4.52 | COC(=O)CC(=O)N1CCN(CCC[C@]2(c3ccccc3)C(C(C)=O)=NN3c4cc(F)ccc4OC[C@H]32)CC1 [Compound 4-32, methyl 3-(4-{3-[(3R,4R)-2-acetyl-8-fluoro-3-phenyl-3a,4-dihydro-3H-pyrazolo[5,1-c][1,4]benzoxazin-3-yl]propyl}piperazin-1-yl)-3-oxopropanoate] |
| – | ≥ 4.52 | CC(=O)C1=NN2c3cc(C)ccc3OCC2[C@@]1(CCCN1CC2C[C@@H]1CO2)c1ccccc1 (mixture of isomers) [Compound 4-20, (3R,4R) 1-{8-methyl-3-[3-(2-oxa-5-azabicyclo[2.2.1]hept-5-yl)propyl]-3-phenyl-3a,4-dihydro-3H-pyrazolo[5,1-c][1,4]benzoxazin-2-yl}ethanone] |
| – | ≥ 4.52 | CC(=O)C1=NN2c3cc(F)ccc3OC[C@H]2[C@@]1(CCCN1CCN(C(=O)OC(C)(C)C)CC1)c1ccccc1 [Compound 4-24, tert-butyl 4-{3-[(3R,4R)-2-acetyl-8-fluoro-3-phenyl-3a,4-dihydro-3H-pyrazolo[5,1-c][1,4]benzoxazin-3-yl]propyl}piperazine-1-carboxylate] |
| – | ≥ 4.52 | COC(=O)C(=O)N1CCN(CCC[C@]2(c3ccccc3)C(C(C)=O)=NN3c4cc(F)ccc4OC[C@H]32)CC1 [Compound 4-31, methyl (4-{3-[(3R,4R)-2-acetyl-8-fluoro-3-phenyl-3a,4-dihydro-3H-pyrazolo[5,1-c][1,4]benzoxazin-3-yl]propyl}piperazin-1-yl)(oxo)acetate] |
| – | ≥ 4.52 | CC(=O)C1=NN2c3cc(F)ccc3OC[C@H]2[C@@]1(CCCN1CCN(C(=O)c2ccno2)CC1)c1ccccc1 [Compound 4-34, 1-((3R,4R)-8-fluoro-3-{3-[4-(isoxazol-5-ylcarbonyl)piperazin-1-yl]propyl}-3-phenyl-3a,4-dihydro-3H-pyrazolo[5,1-c][1,4]benzoxazin-2-yl)ethanone] |
| ≥ 4.52 | – | CC(=O)C1=NN2c3cc(F)ccc3OC[C@H]2[C@@]1(CCCO)c1ccccc1 [Compound 4-12, (3R,4R) 1-[8-fluoro-3-(3-hydroxypropyl)-3-phenyl-3a,4-dihydro-3H-pyrazolo[5,1-c][1,4]benzoxazin-2-yl]ethanone] |
| ≥ 4.52 | – | CC(=O)C1=NN2c3cc(F)ccc3OC[C@H]2[C@H]1c1ccccc1 [Compound 1-8a, (3R,4R)-1-(8-Fluoro-3-phenyl-3a,4-dihydro-3H-pyrazolo[5,1-c][1,4]benzoxazin-2-yl)ethanone] |
